Measured values from patent US20020032187A1, “Method for stimulating bone formation” (SmithKline Beecham Corporation, priority 1996, published 2002).
pEC50: −log10 of the molar value. Read-outs that look alike come from different tables or passages of the source. No end group written: not given here.

Columns and labels:
[1] = system: ROS 17/2.8 osteoblasts; conditions: for increase over the basal level of osteocalcin: 48 hr incubation, Vitamin D3 at 10 nM, internal controls
Method: Cell culture: ROS 17/2.8 osteoblasts were routinely cultured in Ham's F-12 medium containing 5% FBS, 25 rmM HEPES (pH 7.4), 1.1 mM CaCl2, penicillin (10 U/ml) and streptomycin (10 ug/ml). The cells were subcultured twice a week using 0.04% trypsin containing 5 mM EDTA to detach the cells.
For the assay, 30,000 cells were plated per well in 24-well multidishes in 0.5 ml of HAM's F-12 medium containing 1% FBS and allowed to adhere for 3-4 hr at 37° C. in a humidified incubator with 5% CO2. Increasing concentrations of test compounds ([…]) were then added to the wells (duplicate cultures per concentration tested) and the incubation continued for an additional 48 hr. At the end of the incubation, cultures supernatants were removed and assayed for osteocalcin levels using a rat RIA as per the manufacturer's instructions. The lower limit of detection in this assay was 0.3 ng/ml. In every experiment, Vitamin D3 (10 nM) and the peptide cyclo[Arg-Gly-Asp-D-Phe-Val] were tested as an internal controls. […] Activity for each compound was expressed as the EC50 from the dose-response curve.

[2] = system: MC3T3-E1 osteoblasts; experiment: Mineralization of MC3T3 osteoblasts; format: cell-based, murine; conditions: 25 uM
Method: Mineralization of MC3T3 osteoblasts
To characterize the temporal sequence of osteoblast differentiation, 30,000 cells were plated/well in 24-well multidishes and grown for periods ranging from 3-26 days in a-MEM medium (GIBCO) containing 10% fetal bovine serum (V/V), penicillin (100 U/ml) and streptomycin (100 ug/ml), with or without supplementation with 5 mM β-glycerophosphate and 100 uM ascorbic acid in the presence or absence of RGD compounds.
Mineralization of cells was assessed by calcium isotope accumulation. Cells were incubated for 48 h in medium containing 0.5 uCi/mi of ^45CaCl2 at various time points after seeding. Subsequently, the monolayers were washed twice with PBS using 1 ml/wash. Cells were harvested and digested in 0.1 N NaOH and aliquots were counted by liquid scintillation counting using a Beckman 5500 scintillation counter.
Calcified nodules in actively mineralizing cultures were visualized by staining cell monolayers with Alizarin-Red-S (Sigma Chemical Co, St Louis, Mo.). Cell cultures were washed twice with PBS, fixed for 10 min in 50 percent ethanol, rehydrated with 1 ml of distilled water for 5 min and then stained for 1-3 min with 200 uL of 1 percent Alizarin Red S (aqueous). The monolayers were then washed extensively and very carefully using 1 ml H2O per wash. Calcified nodules which appeared a bright red color were identified by light microscopy.
To monitor the differentiation of cells to the mature osteoblast type, alkaline phosphatase activity was determined in cell lysates using the colorimetric assay. Cells were washed twice with PBS using 1 ml/wash. Subsequently, the monolayers were transferred to ice and cells lysed in 0.2 ml of 0.1% TX-100. […] The reactions were stopped with the addition of 100 uL of ice cold 0.25 N NaOH to each reaction and absorbance was read at 410 nm. […] Alkaline phosphatase activity was calculated as umol of substrate (p-nitrophenol) released/mg protein/min.
Osteocalcin levels in the supernatants were determined at various time points during the assay using a mouse RIA as per the manufacturers instructions. […]

Compound | stimulates release of osteocalcin (in words) [1] | increase over the basal level of osteocalcin [1] | other results
CN1Cc2cc(C(=O)NCc3nc4ccccc4[nH]3)ccc2NC(CC(=O)O)C1=O (racemic) [7-[(((2-benzimidazolyl)methyl)amino)carbonyl]-2,3,4,5-tetrahydro4-methyl-3-oxo-1H-1,4-benzodiazepine-2-acetic acid] | osteocalcin-releasing |  | 
CC(C)[C@@H]1NC(=O)[C@@H](Cc2ccccc2)NC(=O)[C@H](CC(=O)O)NC(=O)CNC(=O)[C@H](CCCNC(=N)N)NC1=O [cyclo[Arg-Gly-Asp-D-Phe-Val]] | stimulate the release of osteocalcin | two to three fold increase | pEC50 ([1]; 48 h): 6.13; stimulates release of osteocalcin (in words) ([1]; listed as cyclo(Arg-Gly-Asp-D-Phe-Val)): osteocalcin-releasing; 45Ca uptake [2]: increased calcium uptake; alkaline phosphatase activity [2]: enhanced alkaline phosphatase activity; calcification nodules upon Alizarin-Red staining [2]: showed calcification nodules upon Alzirin staining
Gly-Arc-Gly-Asp-Ser-OH (GRGDS-OH) | stimulate the release of osteocalcin |  | 
Benzyl-(N-methyl)Arg-Gly-Asp-NHPh | stimulate the release of osteocalcin |  | 
Benzyl-(N-methyl)Arg-Gly-Asp-NH-(2 or 4 chloro)Ph | stimulate the release of osteocalcin |  | 
C=C1CC[C@H](O)C/C1=C/C=C1\CCC[C@]2(C)[C@@H]([C@H](C)CCCC(C)C)CC[C@@H]12 [Vitamin D3] |  | two to three fold increase | 
